Molecular target: T1, CK2α (Homo sapiens, UniProt P68400)
T1 construct: gene CSNK2A1; human recombinant CK2α; rhCK2αΔC(1-335)
T1 sequence (P68400 1-335): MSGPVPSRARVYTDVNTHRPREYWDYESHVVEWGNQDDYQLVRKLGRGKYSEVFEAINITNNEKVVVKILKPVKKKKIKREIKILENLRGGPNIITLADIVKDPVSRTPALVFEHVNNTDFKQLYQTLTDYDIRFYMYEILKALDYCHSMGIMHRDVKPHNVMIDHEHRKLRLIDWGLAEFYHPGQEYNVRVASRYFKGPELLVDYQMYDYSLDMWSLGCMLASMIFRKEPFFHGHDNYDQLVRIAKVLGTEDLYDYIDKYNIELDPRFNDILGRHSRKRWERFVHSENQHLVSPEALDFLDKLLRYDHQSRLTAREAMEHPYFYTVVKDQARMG
Test: radiometric kinase assay dose-response, Lineweaver-Burk kinetics, mutant panel
Assay type: biochemical

Work on `O=[N+]([O-])c1ccc2c(N=Nc3ccc4ccccc4c3O)c(O)cc(S(=O)(=O)O)c2c1` [compound 4, Eriochrome Black T] yielded an IC50 of ~400 nM.
